This is an account of results in patent publication US20240228463A1, “SODIUM CHANNEL INHIBITORS AND METHODS OF DESIGNING SAME” (Genentech, Inc., priority 2021, published 2024).

T1 sequence (Q15858 1-1977 isoform Q15858-3): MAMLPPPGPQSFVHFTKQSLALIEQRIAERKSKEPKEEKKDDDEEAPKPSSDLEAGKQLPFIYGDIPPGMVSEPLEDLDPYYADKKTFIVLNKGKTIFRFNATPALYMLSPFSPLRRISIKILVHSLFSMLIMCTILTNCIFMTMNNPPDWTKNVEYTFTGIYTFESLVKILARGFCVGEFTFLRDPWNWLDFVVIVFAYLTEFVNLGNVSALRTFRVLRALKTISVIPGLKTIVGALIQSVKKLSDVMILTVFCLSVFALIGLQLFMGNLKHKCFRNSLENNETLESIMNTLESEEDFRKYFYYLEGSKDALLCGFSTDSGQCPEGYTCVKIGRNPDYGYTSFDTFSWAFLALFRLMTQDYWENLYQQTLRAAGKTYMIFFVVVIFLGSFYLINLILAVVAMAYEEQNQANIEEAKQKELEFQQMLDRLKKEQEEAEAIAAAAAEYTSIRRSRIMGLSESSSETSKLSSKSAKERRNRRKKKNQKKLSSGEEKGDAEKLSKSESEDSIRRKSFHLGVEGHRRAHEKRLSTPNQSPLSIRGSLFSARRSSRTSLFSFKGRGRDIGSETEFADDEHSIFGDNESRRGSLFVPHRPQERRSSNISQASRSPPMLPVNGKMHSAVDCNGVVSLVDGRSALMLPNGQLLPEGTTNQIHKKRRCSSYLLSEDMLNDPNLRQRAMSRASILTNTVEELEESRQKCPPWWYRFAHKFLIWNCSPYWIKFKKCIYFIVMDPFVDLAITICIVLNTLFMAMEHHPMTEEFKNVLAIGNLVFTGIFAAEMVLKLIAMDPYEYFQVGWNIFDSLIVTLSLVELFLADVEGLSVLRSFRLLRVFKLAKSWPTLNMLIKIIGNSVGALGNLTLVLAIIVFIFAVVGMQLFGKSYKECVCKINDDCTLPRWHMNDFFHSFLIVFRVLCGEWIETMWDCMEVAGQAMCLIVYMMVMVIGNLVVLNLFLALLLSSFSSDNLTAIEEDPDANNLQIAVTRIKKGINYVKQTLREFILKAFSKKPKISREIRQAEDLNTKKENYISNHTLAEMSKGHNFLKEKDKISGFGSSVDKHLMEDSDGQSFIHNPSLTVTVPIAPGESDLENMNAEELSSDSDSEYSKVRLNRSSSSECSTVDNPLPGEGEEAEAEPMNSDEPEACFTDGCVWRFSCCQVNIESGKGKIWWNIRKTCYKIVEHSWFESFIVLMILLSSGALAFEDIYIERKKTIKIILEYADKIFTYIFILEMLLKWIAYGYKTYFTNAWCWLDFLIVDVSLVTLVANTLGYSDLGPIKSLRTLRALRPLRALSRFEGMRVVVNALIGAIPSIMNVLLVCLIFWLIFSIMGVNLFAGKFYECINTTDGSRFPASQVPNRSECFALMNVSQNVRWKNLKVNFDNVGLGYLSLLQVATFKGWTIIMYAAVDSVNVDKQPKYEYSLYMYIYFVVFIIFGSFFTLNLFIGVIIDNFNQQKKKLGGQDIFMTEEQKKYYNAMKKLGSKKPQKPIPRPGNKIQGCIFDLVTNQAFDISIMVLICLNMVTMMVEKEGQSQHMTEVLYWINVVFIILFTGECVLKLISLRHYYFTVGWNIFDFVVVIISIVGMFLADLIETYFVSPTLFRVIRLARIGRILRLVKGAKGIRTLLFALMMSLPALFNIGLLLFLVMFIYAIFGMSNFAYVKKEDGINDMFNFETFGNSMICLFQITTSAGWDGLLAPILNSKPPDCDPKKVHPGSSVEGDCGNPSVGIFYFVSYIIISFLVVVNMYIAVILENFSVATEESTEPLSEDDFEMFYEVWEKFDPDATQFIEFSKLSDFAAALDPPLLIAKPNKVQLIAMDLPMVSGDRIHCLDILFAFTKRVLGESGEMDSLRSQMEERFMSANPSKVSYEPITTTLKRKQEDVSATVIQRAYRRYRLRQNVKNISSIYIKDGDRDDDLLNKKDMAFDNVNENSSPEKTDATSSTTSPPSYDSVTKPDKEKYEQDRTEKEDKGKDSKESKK

The test concerns the target T1, hNaV1.7 (Homo sapiens, UniProt Q15858).
T1 construct: expressed in transfected cells
Nature of the test: Patch voltage clamp electrophysiology (EP), Syncropatch 384PE, Nav1.7 in CHO cells.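 Note: Nav1.7 stably expressed from cDNA in CHO cells, holding potential of −50 mV kept for the entire experiment.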 Format: cell-based. The conditions noted are these: holding potential −50 mV, inhibition based on 7.5 min compound incubation, read-out: hNaV1.7 EP_SP.
Consider `O=C(NS(=O)(=O)N1CC2(CCO2)C1)c1cc(Cl)c(OCC2CCCC2)cc1F` [Example 228, N-((1-oxa-6-azaspiro[3.3]heptan-6-yl)sulfonyl)-5-chloro-4-(cyclopentylmethoxy)-2-fluorobenzamide], for which the IC50 was found to be 210 nM.

Turning to `O=C(NS(=O)(=O)N1CCCC12CC2)c1cc(Cl)c(OCC2CCCC2)cc1F` [Example 229, N-((4-azaspiro[2.4]heptan-4-yl)sulfonyl)-5-chloro-4-(cyclopentylmethoxy)-2-fluorobenzamide], the IC50 is 12 nM. Then `O=C(NS(=O)(=O)N1C[C@@H]2CC[C@@H](C2)C1)c1cc(Cl)c(OCC2CCCC2)cc1F` [Example 230, N-(((1R,5S)-3-azabicyclo[3.2.1]octan-3-yl)sulfonyl)-5-chloro-4-(cyclopentylmethoxy)-2-fluorobenzamide], with 63 nM. Then `O=C(NS(=O)(=O)N1CC[C@@H]2CN[C@@H]2C1)c1cc(Cl)c(OCC2CCCC2)cc1F` [Example 231, N-((1S,6R)-3,8-diazabicyclo[4.2.0]octan-3-ylsulfonyl)-5-chloro-4-(cyclopentylmethoxy)-2-fluorobenzamide 2,2,2-trifluoroacetate], with 430 nM; and `NC[C@@H]1CCN(S(=O)(=O)NC(=O)c2cc(Cl)c(OCC3CCCC3)cc2F)C1` [Example 232, (S)—N-((3-(aminomethyl)pyrrolidin-1-yl)sulfonyl)-5-chloro-4-(cyclopentylmethoxy)-2-fluorobenzamide 2,2,2-trifluoroacetate], with 880 nM; and `NC1CN(S(=O)(=O)NC(=O)c2cc(Cl)c(OCC3CCCC3)cc2F)C1` [Example 233, N-((3-aminoazetidin-1-yl)sulfonyl)-5-chloro-4-(cyclopentylmethoxy)-2-fluorobenzamide], with 870 nM. Turning to `CN(C)C1CN(S(=O)(=O)NC(=O)c2cc(Cl)c(OCC3CCCC3)cc2F)C1` [Example 234, 5-chloro-4-(cyclopentylmethoxy)-N-((3-(dimethylamino)azetidin-1-yl)sulfonyl)-2-fluorobenzamide], the IC50 was 340 nM. As for `CN1CC(OC2CCN(S(=O)(=O)NC(=O)c3cc(C4CC4)c(OCc4ccccc4)cc3F)CC2)C1` [Example 236, 4-(benzyloxy)-5-cyclopropyl-2-fluoro-N-((4-((1-methylazetidin-3-yl)oxy)piperidin-1-yl)sulfonyl)benzamide], the IC50 is 39 nM. Then `CC(C)COc1cc(F)c(C(=O)NS(=O)(=O)N2CCC(OC3CN(C)C3)CC2)cc1C1CC1` [Example 237, 5-cyclopropyl-2-fluoro-4-isobutoxy-N-((4-((1-methylazetidin-3-yl)oxy)piperidin-1-yl)sulfonyl)benzamide formic acid], with 50 nM; and `CN1CC(OC2CCN(S(=O)(=O)NC(=O)c3cc(C4CC4)c(OCC(F)(F)F)cc3F)CC2)C1` [Example 238, 5-cyclopropyl-2-fluoro-N-((4-((1-methylazetidin-3-yl)oxy)piperidin-1-yl)sulfonyl)-4-(2,2,2-trifluoroethoxy)benzamide], with 84 nM; and `CN1CC(OC2CCN(S(=O)(=O)NC(=O)c3cc(Cl)c(Oc4ccc(Cl)c(C(F)(F)F)c4)cc3F)CC2)C1` [Example 239, 5-chloro-4-(4-chloro-3-(trifluoromethyl)phenoxy)-2-fluoro-N-((4-((1-methylazetidin-3-yl)oxy)piperidin-1-yl)sulfonyl)benzamide], with 25 nM.

In the case of `O=C(NS(=O)(=O)c1ccccc1F)c1cc(Cl)c(OCC2CCCC2)cc1F` [Example 241, 5-chloro-4-(cyclopentylmethoxy)-2-fluoro-N-((2-fluorophenyl)sulfonyl)benzamide], the IC50 turned out to be 65 nM. With `Cc1ccccc1S(=O)(=O)NC(=O)c1cc(Cl)c(OCC2CCCC2)cc1F` [Example 242, 5-chloro-4-(cyclopentylmethoxy)-2-fluoro-N-(o-tolylsulfonyl)benzamide], the IC50 stood at 110 nM.

As for `CCc1ccc(S(=O)(=O)NC(=O)c2cc(Cl)c(OCC3CCCC3)cc2F)cc1` [Example 243, 5-chloro-4-(cyclopentylmethoxy)-N-((4-ethylphenyl)sulfonyl)-2-fluorobenzamide], the IC50 stood at 670 nM. The figure for `CCc1cccc(S(=O)(=O)NC(=O)c2cc(Cl)c(OCC3CCCC3)cc2F)c1` [Example 244, 5-chloro-4-(cyclopentylmethoxy)-N-((3-ethylphenyl)sulfonyl)-2-fluorobenzamide] is 770 nM; for `COc1cccc(S(=O)(=O)NC(=O)c2cc(Cl)c(OCC3CCCC3)cc2F)c1` [Example 245, 5-chloro-4-(cyclopentylmethoxy)-2-fluoro-N-((3-methoxyphenyl)sulfonyl)benzamide] it is 690 nM. Consider `COc1ccccc1S(=O)(=O)NC(=O)c1cc(Cl)c(OCC2CCCC2)cc1F` [Example 246, 5-chloro-4-(cyclopentylmethoxy)-2-fluoro-N-((2-methoxyphenyl)sulfonyl)benzamide], for which the IC50 is 230 nM. The figure for `CC(C)S(=O)(=O)NC(=O)c1cc(Cl)c(OCC2CCCC2)cc1F` [Example 247, 5-chloro-4-(cyclopentylmethoxy)-2-fluoro-N-(isopropylsulfonyl)benzamide] is 52 nM. Turning to `Cc1csc(S(=O)(=O)NC(=O)c2cc(Cl)c(OCC3CCCC3)cc2F)c1` [Example 252, 5-chloro-4-(cyclopentylmethoxy)-2-fluoro-N-((4-methylthiophen-2-yl)sulfonyl)benzamide], the IC50 stood at 110 nM. The figure for `O=C(NS(=O)(=O)CCCOc1cccc(C(F)(F)F)c1)c1cc(Cl)c(OCC2CCCC2)cc1F` [Example 253, 5-chloro-4-(cyclopentylmethoxy)-2-fluoro-N-((3-(3-(trifluoromethyl)phenoxy)propyl)sulfonyl)benzamide] is 420 nM. Then `O=C(NS(=O)(=O)C1CC12CCC2)c1cc(Cl)c(OCC2CCCC2)cc1F` (centres unmarked) [Example 256, 5-chloro-4-(cyclopentylmethoxy)-2-fluoro-N-(spiro[2.3]hexan-1-ylsulfonyl)benzamide], with 13 nM; and `CN(C)[C@H]1CCCC[C@@H]1Oc1ccc(S(=O)(=O)Nc2ccc(SCc3ccccc3Cl)cn2)c(F)c1` [Example 257, N-(5-((2-chlorobenzyl)thio)pyridin-2-yl)-4-(((1S,2S)-2-(dimethylamino)cyclohexyl)oxy)-2-fluorobenzenesulfonamide], with 730 nM; and `CN(C)[C@H]1CCCC[C@@H]1Oc1ccc(S(=O)(=O)Nc2ccc(Oc3ccc(Cl)cc3)cn2)c(F)c1` [Example 258, N-(5-(4-chlorophenoxy)pyridin-2-yl)-4-(((1S,2S)-2-(dimethylamino)cyclohexyl)oxy)-2-fluorobenzenesulfonamide], with 830 nM. Consider `O=C(NS(=O)(=O)c1cnn(-c2cccc(C(F)(F)F)c2)c1)c1cc(Cl)c(OCC2CCCC2)cc1F` [Example 259, 5-chloro-4-(cyclopentylmethoxy)-2-fluoro-N-((1-(3-(trifluoromethyl)phenyl)-1H-pyrazol-4-yl)sulfonyl)benzamide], for which the IC50 came to 790 nM. Then `Cc1cccc(COc2ccc(S(=O)(=O)NC(=O)c3cc(Cl)c(OCC4CCCC4)cc3F)cc2)c1` [Example 260, 5-chloro-4-(cyclopentylmethoxy)-2-fluoro-N-((4-((3-methylbenzyl)oxy)phenyl)sulfonyl)benzamide], with 200 nM; and `O=C(NS(=O)(=O)c1ccc2c(c1)CCCC2)c1cc(Cl)c(OCC2CCCC2)cc1F` [Example 261, 5-chloro-4-(cyclopentylmethoxy)-2-fluoro-N-((5,6,7,8-tetrahydronaphthalen-2-yl)sulfonyl)benzamide], with 530 nM; and `O=C(NS(=O)(=O)c1ccc2c(c1)CCC2)c1cc(Cl)c(OCC2CCCC2)cc1F` [Example 262, 5-chloro-4-(cyclopentylmethoxy)-N-((2,3-dihydro-1H-inden-5-yl)sulfonyl)-2-fluorobenzamide], with 270 nM. The figure for `O=C(NS(=O)(=O)c1ccc(Oc2ccccc2)cc1)c1cc(Cl)c(OCC2CCCC2)cc1F` [Example 263, 5-chloro-4-(cyclopentylmethoxy)-2-fluoro-N-((4-phenoxyphenyl)sulfonyl)benzamide] is 220 nM; for `O=C(NS(=O)(=O)c1ccc(OCc2ccccc2Cl)cc1)c1cc(Cl)c(OCC2CCCC2)cc1F` [Example 264, 5-chloro-N-((4-((2-chlorobenzyl)oxy)phenyl)sulfonyl)-4-(cyclopentylmethoxy)-2-fluorobenzamide] it is 84 nM; for `O=C(NS(=O)(=O)c1ccc2c(c1)CCCO2)c1cc(Cl)c(OCC2CCCC2)cc1F` [Example 265, 5-chloro-N-(chroman-6-ylsulfonyl)-4-(cyclopentylmethoxy)-2-fluorobenzamide] it is 330 nM.

In the case of `O=C(NS(=O)(=O)CC1Cc2ccccc2C1)c1cc(Cl)c(OCC2CCCC2)cc1F` [Example 266, 5-chloro-4-(cyclopentylmethoxy)-N-(((2,3-dihydro-1H-inden-2-yl)methyl)sulfonyl)-2-fluorobenzamide], the IC50 was 130 nM. The figure for `O=C(NS(=O)(=O)c1ccc2c(c1)NCCC2)c1cc(Cl)c(OCC2CCCC2)cc1F` [Example 267, 5-chloro-4-(cyclopentylmethoxy)-2-fluoro-N-((1,2,3,4-tetrahydroquinolin-7-yl)sulfonyl)benzamide] is 800 nM. The figure for `O=C(NS(=O)(=O)Cc1cccc(F)c1F)c1cc(Cl)c(OCC2CCCC2)cc1F` [Example 268, 5-chloro-4-(cyclopentylmethoxy)-N-((2,3-difluorobenzyl)sulfonyl)-2-fluorobenzamide] is 88 nM; for `O=C(NS(=O)(=O)c1cnn(-c2ccccc2F)c1)c1cc(Cl)c(OCC2CCCC2)cc1F` [Example 269, 5-chloro-4-(cyclopentylmethoxy)-2-fluoro-N-((1-(2-fluorophenyl)-1H-pyrazol-4-yl)sulfonyl)benzamide] it is 940 nM.

Consider `C[C@H]1Cc2cc(S(=O)(=O)NC(=O)c3cc(Cl)c(OCC4CCCC4)cc3F)ccc2O1` [Example 270, (S)-5-chloro-4-(cyclopentylmethoxy)-2-fluoro-N-((2-methyl-2,3-dihydrobenzofuran-5-yl)sulfonyl)benzamide], for which the IC50 was determined as 380 nM.
